Counter-ions that a name gives are not always drawn. Like-named read-outs stand apart in the source and are kept apart here.

Among the data in patent publication US7468369B2, “Sulfonyl pyrrolidines, method for producing the same and their use as drugs” (Sanofi-Aventis, priority 2005, dated 2008) are EC50 values, retold here.

This assay concerns human ABCA1 promoter. Briefly: ABCA1 promoter test (luciferase reporter in stably transfected THP1 cell line). Particulars: Homo sapiens, read-out: E50 ABCA1. The assay is classed as cell-based. As to the method:
The potency of substances which activate expression of the human ABCA1 gene via its promoter is analyzed by using a stably transfected THP1 cell line (human monocyte cell line) which is referred to herein as ABCA1 reporter cell line. It contains a fragment, 3.2 kb in size and stably integrated into the genome, of the human ABCA1 promoter in front of a luciferase reporter element. Expression of the luciferase reporter gene is only low without addition of an ABCA1 expression activator. The substances stimulating ABCA1 expression bring about, via activation of the ABCA1 promoter, an enhanced expression of the luciferase reporter gene. The luciferase which is formed can be detected via an appropriate substrate by means of chemiluminescence.
Construction of the Cell Line
The ABCA1 reporter line was prepared as follows: firstly the neomycin resistance gene (Acc. No.: AJ000156) was introduced into the luciferase reporter plasmid pLG3basic (#1751, Promega) 3′ below the luciferase reporter element. Subsequently, an ABCA1 promoter fragment, 3.2 kb in size and amplified from human genomic DNA (#6550-1, Clontech) by the polymerase chain reaction, was cloned in 5′ above the luciferase reporter element. The reporter plasmid produced in this way was called pGL3BN-ABCA1P. Luciferase expression in this plasmid is controlled by the ABCA1 promoter. Cloning and sequencing of the construct took place in analogy to the description in Sambrook J et al. (Molecular cloning, Cold Spring Harbor Laboratory Press, 1989). For stable transfection into THP1 cells, firstly pGL3BN-ABCA1P was linearized with a restriction endonuclease and then introduced into the THP1 cells as stated in Ausubel, F. M. et al. (Current protocols in molecular biology, Vol. 1-3, John Wiley & Sons, Inc., 1995).
The activity of ABCA1 expression activators is determined in a 3-day test which is described below:
The ABCA1 reporter cell line comprises suspension cells. These are cultured until the concentration is 0.5×10^6 cells/ml in RPMI medium (#52400-025, Invitrogen) which is mixed with the following additions: 10% FCS (fetal calf serum; #16000-044, invitrogen), 0.5 mg/ml Geneticin (#10131-019, invitrogen) and 1% penicillin-streptomycin solution (#15140-122, invitrogen). The culturing takes place in standard cell culture flasks (#353112, Becton Dickinson) in a cell culture incubator at 37° C. in the presence of 5% CO2.
For the ABCA1 promoter test, the suspension cells are centrifuged at 1200 rpm in 50 ml tubes. The supernatant is aspirated off, and the pellet is resuspended in 15 ml of RPMI medium and counted in a cell counter. After dilution to 175 000 cells/ml, 0.1 μg/ml PMA (phorbol 12-myristate 13-acetate, #8139-5MG, Sigma) is added in order to induce differentiation of the monocytic THP1 suspension cells into adherent macrophages. 35 000 cells in each well are seeded in a 96-well microtiter plate with clear plastic base (#3610, Corning Costar). The plates are incubated in a cell culture incubator at 37° C. and 5% CO2 for 24 h.
The ABCA1 expression activators to be tested are dissolved in a concentration of 10 mM in DMSO. This stock solution is diluted in the RPMI medium (mixed with 0.1 μg/ml PMA) described above. Test substances are tested in 11 different concentrations in the range from […] to 330 pM. The medium of the ABCA1 reporter cell line seeded on day 1 is completely removed by aspiration and the diluted test substances are immediately added to the cells. The dilution and addition of the substances takes place with a pipetting robot (Beckman FX). The final volume of the test substances diluted in medium is 100 μl per well of a 96-well microtiter plate. The DMSO concentration in the test is less than 0.1% v/v in order to avoid cytotoxic effects of the solvent.
The test plates are incubated in an incubator at 37° C. and 5% CO2 for 24 h.
The ABCA1 reporter cells treated with the test substances are removed from the incubator and the medium is aspirated off. […]

[1] abbreviates: THP-1, ABCA1 reporter cell line (THP1, PMA-differentiated), 24 h incubation, luciferase chemiluminescence.

With `Cc1ccc(C)c(N2CCN(C(=O)[C@@H]3CN(S(=O)(=O)c4sc5ccc(Cl)cc5c4C)C[C@H]3c3ccccc3)CC2)c1` (racemic) [Example 51, [1-(5-Chloro-3-methylbenzo[b]thiophene-2-sulfonyl)-3,4-trans-4-phenyl-pyrrolidin-3-yl]-[4-(2,5-dimethylphenyl)piperazin-1-yl]methanone], under setting [1], the EC50 was found to be 2770 nM.

In the case of `Cc1cccc(N2CCN(C(=O)[C@@H]3CN(S(=O)(=O)c4cccs4)C[C@H]3c3ccccc3)CC2)c1C` (racemic) [Example 52], the EC50 under setting [1] was 3270 nM.

For `Cc1cccc(N2CCN(C(=O)[C@@H]3CN(S(=O)(=O)c4cc(Br)c(Br)s4)C[C@H]3c3ccccc3)CC2)c1C` (racemic) [Example 53, [1-(4,5-Dibromothiophene-2-sulfonyl)-3,4-trans-4-phenylpyrrolidin-3-yl]-[4-(2,3-dimethylphenyl)piperazin-1-yl]methanone], under setting [1], the EC50 turned out to be 5760 nM.

As for `Cc1cccc(N2CCN(C(=O)[C@@H]3CN(S(=O)(=O)c4ccc(Cl)s4)C[C@H]3c3ccccc3)CC2)c1C` (racemic) [Example 54, [1-(5-Chlorothiophene-2-sulfonyl)-3,4-trans-4-phenylpyrrolidin-3-yl]-[4-(2,3-dimethylphenyl)piperazin-1-yl]methanone], the EC50 under setting [1] is 4630 nM.

Take `Cc1cccc(N2CCN(C(=O)[C@@H]3CN(S(=O)(=O)c4cc(Cl)c(Cl)s4)C[C@H]3c3ccccc3)CC2)c1C` (racemic) [Example 55, [1-(4,5-Dichlorothiophene-2-sulfonyl)-3,4-trans-4-phenylpyrrolidin-3-yl]-[4-(2,3-dimethylphenyl)piperazin-1-yl]methanone]: the EC50 under setting [1] came out at 826 nM.

As to `COc1ccc(N2CCN(C(=O)[C@@H]3CN(S(=O)(=O)c4cc(Br)c(Br)s4)C[C@H]3c3ccccc3)CC2)cc1` (racemic) [Example 59], under setting [1], the EC50 turned out to be 1160 nM.

For the compound `COc1ccc(N2CCN(C(=O)[C@@H]3CN(S(=O)(=O)c4ccc(Cl)s4)C[C@H]3c3ccccc3)CC2)cc1` (racemic) [Example 60, [1-(5-Chlorothiophene-2-sulfonyl)-3,4-trans-4-phenylpyrrolidin-3-yl]-[4-(4-methoxyphenyl)piperazin-1-yl]methanone], the EC50 under setting [1] amounted to 6680 nM.

For `COc1ccc(N2CCN(C(=O)[C@@H]3CN(S(=O)(=O)c4cc(Cl)c(Cl)s4)C[C@H]3c3ccccc3)CC2)cc1` (racemic) [Example 61, [1-(4,5-Dichlorothiophene-2-sulfonyl)-3,4-trans-4-phenylpyrrolidin-3-yl]-[4-(4-methoxyphenyl)piperazin-1-yl]methanone], the EC50 under setting [1] came to 2610 nM.

`O=C([C@@H]1CN(S(=O)(=O)c2cc(Br)c(Br)s2)C[C@H]1c1ccccc1)N1CCN(c2ccccc2)CC1` (racemic) [Example 64, [1-(4,5-Dibromothiophene-2-sulfonyl)-3,4-trans-4-phenylpyrrolidin-3-yl]-(4-phenylpiperazin-1-yl)methanone]: the EC50 under setting [1] came out at 3160 nM.

`Cc1ccc(C)c(N2CCN(C(=O)[C@@H]3CN(S(=O)(=O)c4cccs4)C[C@H]3c3ccccc3)CC2)c1` (racemic) [Example 67, [4-(2,5-Dimethylphenyl)piperazin-1-yl]-[3,4-trans-4-phenyl-1-(thiophene-2-sulfonyl)pyrrolidin-3-yl]methanone]: under setting [1], the EC50 was determined as 2190 nM.

Take `COc1cccc(S(=O)(=O)N2C[C@@H](C(=O)N3CCN(c4cc(C)ccc4C)CC3)[C@H](c3ccccc3)C2)c1` (racemic) [Example 69, [4-(2,5-Dimethylphenyl)piperazin-1-yl]-[1-(3-methoxybenzenesulfonyl)-3,4-trans-4-phenylpyrrolidin-3-yl]methanone]: the EC50 under setting [1] came out at 330 nM.

For the compound `Cc1ccc(C)c(N2CCN(C(=O)[C@@H]3CN(S(=O)(=O)c4c(C)noc4C)C[C@H]3c3ccccc3)CC2)c1` (racemic) [Example 71, [1-(3,5-Dimethylisoxazole-4-sulfonyl)-3,4-trans-4-phenylpyrrolidin-3-yl]-[4-(2,5-dimethylphenyl)piperazin-1-yl]methanone], the EC50 under setting [1] was 381 nM.

Turning to `COc1cccc(S(=O)(=O)N2C[C@@H](C(=O)N3CCN(c4c(C)cccc4C)CC3)[C@H](c3ccccc3)C2)c1` (racemic) [Example 86], under setting [1], the EC50 is 459 nM.

With `Cc1ccc(C)c(N2CCN(C(=O)[C@H]3CN(S(=O)(=O)c4cccs4)C[C@H]3c3ccccc3)CC2)c1` (racemic) [Example 117, [4-(2,5-Dimethylphenyl)piperazin-1-yl]-[3,4-cis-4-phenyl-1-(thiophene-2-sulfonyl)pyrrolidin-3-yl]methanone], the EC50 (THP-1, 24 h) was determined as 291 nM.

As to `Cc1ccc([C@@H]2CN(S(=O)(=O)c3c(C)noc3C)C[C@H]2C(=O)N2CCN(c3cc(C)ccc3C)CC2)cc1` [Example 1, [1-(3,5-Dimethylisoxazole-4-sulfonyl)-3,4-trans-4-p-tolylpyrrolidin-3-yl]-[4-(2,5-dimethylphenyl)piperazin-1-yl]methanone trifluoroacetate], under setting [1], the EC50 came to 2840 nM.

Consider `O=C([C@@H]1CN(S(=O)(=O)c2cc(Cl)c(Cl)s2)C[C@H]1c1ccccc1)N1CCN(c2ccccc2)CC1` [Example 21, [1-(4,5-Dichlorothiophene-2-sulfonyl)-3,4-trans-4-phenylpyrrolidin-3-yl]-(4-phenylpiperazin-1-yl)methanone], for which the EC50 under setting [1] turned out to be 4620 nM.

For the compound `O=C([C@@H]1CN(S(=O)(=O)c2cccs2)C[C@H]1c1ccccc1)N1CCN(c2cc(Cl)ccc2Cl)CC1` [Example 66, [4-(2,5-Dichlorophenyl)piperazin-1-yl]-[3,4-trans-4-phenyl-1-(thiophene-2-sulfonyl)pyrrolidin-3-yl]methanone trifluoroacetate], under setting [1], the EC50 worked out at 432 nM.

Turning to `Cc1ccc(C)c(N2CCN(C(=O)[C@@H]3CN(S(=O)(=O)c4cccc5nonc45)C[C@H]3c3ccccc3)CC2)c1` [Example 68, [1-(Benzene[1,2,5-oxadiazol-4-sulfonyl)-3,4-trans-4-phenylpyrrolidin-3-yl]-[4-(2,5-dimethylphenyl)piperazin-1-yl]methanone trifluoroacetate], the EC50 under setting [1] was 869 nM.

With `Cc1ccc(C)c(N2CCN(C(=O)[C@@H]3CN(S(=O)(=O)C(C)C)C[C@H]3c3ccccc3)CC2)c1` [Example 70, [4-(2,5-Dimethylphenyl)piperazin-1-yl]-[3,4-trans-4-phenyl-1-(propan-2-sulfonyl)pyrrolidin-3-yl]methanone trifluoroacetate], the EC50 under setting [1] amounted to 915 nM.

Turning to `Cc1ccc(C)c(N2CCN(C(=O)[C@@H]3CN(S(=O)(=O)c4cccnc4)C[C@H]3c3ccccc3)CC2)c1` [Example 72, [4-(2,5-Dimethylphenyl)piperazin-1-yl]-[3,4-trans-4-phenyl-1-(pyridine-3-sulfonyl)pyrrolidin-3-yl]methanone trifluoroacetate], the EC50 under setting [1] was determined as 241 nM.

On to `O=C([C@@H]1CN(S(=O)(=O)c2cccnc2)C[C@H]1c1ccccc1)N1CCN(c2cc(Cl)ccc2Cl)CC1` [Example 73, [4-(2,5-Dichlorophenyl)piperazin-1-yl]-[3,4-trans-4-phenyl-1-(pyridine-3-sulfonyl)pyrrolidin-3-yl]methanone trifluoroacetate], for which, under setting [1], the EC50 worked out at 407 nM.

Take `Cc1cccc(S(=O)(=O)N2C[C@@H](C(=O)N3CCN(c4cc(Cl)ccc4Cl)CC3)[C@H](c3ccccc3)C2)c1` [Example 74, [4-(2,5-Dichlorophenyl)piperazin-1-yl]-[3,4-trans-4-phenyl-1-(toluene-3-sulfonyl)pyrrolidin-3-yl]methanone trifluoroacetate]: the EC50 under setting [1] is 340 nM.
